Experimental data from patent US20050026951A1, “Methods of therapeutic treatment using retinoids with reduced drug interaction” (Allergan, Inc., priority 2003, published 2005).

Experiments:
[1] = tested on: patients having nodulocystic acne; assay: Two placebo-controlled dose-ranging safety studies of oral tazarotene in nodulocystic acne; assay type: in vivo, human; settings: for Emotional lability, patients: all cases mild
Method: Two placebo-controlled dose-ranging studies are conducted to evaluate the safety of oral tazarotene in patients having nodulocystic acne. In the first study, patients receive orally administered tazarotene at daily doses of 0.4 mg to 2.8 mg in 96 (71+25) patients (12 weeks treatment plus 12 weeks post-treatment). In the second study, daily doses of 0.75 mg to 6 mg tazarotene are administered to 181 patients (24 weeks treatment plus 12 weeks post-treatment).

[2] = tested on: patients with moderate to very severe plaque psoriasis; assay: Open-label extension study of oral tazarotene in plaque psoriasis non-responders; assay type: in vivo, human; settings: 4.5 mg once daily, extension treatment period, across both groups
Method: Two multicenter, double-blind, placebo-controlled studies ware conducted to evaluate the efficacy and safety of oral tazarotene (4.5 mg once daily) in patients with moderate to very severe plaque psoriasis. […] Efficacy evaluations include overall lesional assessment (OLA), percent body surface area involvement, global response to treatment, plaque elevation, scaling, and erythema. OLA is graded on a 6-point scale (0=none, 1=minimal, 2=mild, 3=moderate, 4=severe, 5=very severe).

[3] = tested on: patients with severe nodulocystic acne; assay: Multicenter double-blind placebo-controlled study of oral tazarotene in severe nodulocystic acne; assay type: in vivo, human
Excerpt: A multicenter, double-blind, randomized, placebo-controlled parallel-group study is undertaken to determine the efficacy of orally administered tazarotene in treating severe nodulocystic acne.
In addition, washout periods for other medications for this study are: 1 week for vitamin A supplements >5000 IU; 2 weeks for topical anti-acne medications (e.g., retinoids, azelaic acid, benzoyl peroxide); 2 weeks for topical or systemic antibiotic therapy that may alter the course of acne; and 6 months for systemic retinoids.
Patients are randomized to receive placebo or oral tazarotene (0.75, 1.5, 3, or 6 mg), in a 1:1:1:1:1 ratio once daily for 24 weeks. After this, the patients are followed without treatment for an additional 12 weeks. Patients discontinuing from the treatment period due to adverse effects or lack of efficacy are eligible for entry into the post-treatment phase.
In the study, overall acne severity is rated as: none (no inflammatory acne lesions); mild (few to several papules or pustules, no nodulocystic lesions); moderate (several to many papules or pustules, few to several nodulocystic lesions); and severe (numerous or extensive papules or pustules, many, for example, at least about 5 or at least about 10, nodulocystic lesions).
Treatment success is defined as at least moderate (about 50%) improvement on the following 7-point global response scale: • 0=completely cleared • 1=almost cleared (about 90% improvement) • 2=marked response (about 75% improvement) • 3=moderate response (about 50% improvement) • 4=slight response (about 25% improvement) • 5=condition unchanged • 6=condition worsened
In this study, facial nodulocystic lesion count includes lesions greater than 5 mm in size. Facial papular/pustular lesion count includes lesions less than or equal to 5 mm in size. Facial non-inflammatory lesion count includes open and closed comedones.
Sebum output is assessed every 4 weeks at selected centers using the Sebutape® patches, sold by Cuderm Corporation. Urinalysis, chemistry, and hematology values are monitored. Bone formation and resorption assessments (serum bone alkaline phosphatase and serum amino terminal telopeptides, respectively) at selected centers are monitored.
Bone mineral density of spine and proximal femur at selected centers is monitored. Ligament calcification or osteophyte formation (lateral X-ray of the cervical and thoracic spine, and ankle calcaneous) is monitored. Epiphyseal growth plate closure (internal oblique X-ray of the ankle in patients less than or equal to 21 years old) is monitored.

[4] = tested on: patients; assay: Two 24-week placebo-controlled safety studies of oral tazarotene plus 16- to 24-week dose-response evaluations; assay type: in vivo, human; settings: 4.5 mg orally once daily
Method: Two multicenter, double-blind, randomized, placebo-controlled 24-week studies of identical design are conducted to evaluate the safety of oral tazarotene. In addition, 16- to 24-week dose-response evaluations are performed.
In the two safety trials, the incidence of adverse side effects with a 4.5 mg dose administered orally once daily is compared to the incidence of the same side effects with a placebo. […] The majority of these were mild in severity and typical of adverse effects associated with oral retinoids.

[5] = oral; cited from earlier work
[6] = tested on: RARs; assay: RAR activation and subtype selectivity; assay type: cell-based
Excerpt: (§1) The selection of a retinoid component useful in accordance with the present invention can be accomplished using straightforward, conventional testing and/or assays, such as the transactivation assays set forth in Evans et al., U.S. Pat. No. 5,217,867; 5,262,300; 5,310,662; and 5,906,920, each of which is hereby incorporated in its entirety herein by reference, which are well known in the art. Such testing and/or assays can identify suitable useful retinoid components without undue experimentation.
Other well known and straightforward test methods and/or assays may be employed to determine the selectivity or specificity of an RAR active compound to RAR-alpha, RAR-beta and RAR-gamma. For example, using conventional and well known assays, for example, such as set forth in Klein et al. U.S. Pat. No. 5,776,699, the disclosure of which is incorporated in its entirety herein by reference, and/or the above-noted Evans et al. patents, the selectively or specificity of a compound to RAR-alpha, RAR-beta and RAR-gamma can be determined. Based on the results of such assays, one can determine whether or not a compound is useful in accordance with one or more aspects of the present invention.

[7] = Food effect on pharmacokinetics of tazarotenic acid after 6.3 mg oral tazarotene (high-fat breakfast vs 8-10 hour fast); assay type: in vivo, human; settings: fed (high-fat meal) vs fasted
Method: For the purposes of this application, the bioavailability of a drug may be based on the human pharmokinetic parameters of maximum blood concentration (Cmax) and Area under the blood concentration-time curve (AUC).
The LC-MS/MS test for simultaneous detection of tazarotene and tazarotenic acid may be run as follows. One ml of plasma (EDTA-treated) is diluted with 1.0 ml of water. Diluted plasma is extracted using solid phase extraction (SPE) on a C18 cartridge. The eluate is evaporated, reconstituted in a water/methanol-based mobile phase, and injected onto a 4.6×50 mm, 3 μm pore size C-8 reverse phase high pressure liquid chromatography (HPLC) column (Agilent, Wilmington, Del.). Compounds are gradient-eluted at 1.2 mL/min and detected using an API 3000 triple quadrupole mass spectrometer with an Atmospheric Pressure Chemical Ionization (APCI) source (PE-Sciex, Concord, Ontario, Canada). […] The specific precursor-product ion pair monitored are m/z 352→324 for tazarotene, m/z […] for the tazarotene internal standard, m/z 324→294 for tazarotenic acid, and m/z 331→298 for the tazarotenic acid internal standard. The lower limit of quantitation at assay range tested is 0.1 ng/mL, with a coefficient of variation and deviation from nominal concentration of <15%.

[8] = tested on: RXRs; assay: RXR activation; assay type: cell-based
Excerpt: as §1
In other aspects of the present invention, one or more compounds, for example, from a screening library of compounds, which are known to have or have been tested, using conventional and well known techniques, and found to have useful RAR activity, can be individually or collectively tested for RXR activity using conventional and well known testing procedures. See, for example, the above-noted Evans et al. patents, in particular U.S. Pat. No. 5,906,920.

[9] = tested on: sebaceous glands; settings: severe acne; cited from earlier work
[10] = relative to tamoxifen in the absence of bexarotene; cited from earlier work

SMILES: CCOC(=O)c1ccc(C#Cc2ccc3c(c2)C(C)(C)CCS3)nc1 [tazarotene]
- Severe dry skin ([1]; 3 mg and 6 mg groups): No patient
- Emotional lability, patients ([1]; 3 mg group (1 patient)): 3%
- Depression, patients ([1]; 3 mg group (3 patients: 2 mild, 1 severe)): 8%
- Emotional lability, patients ([1]; 6 mg group (5 patients)): 14%
- Changes in urinalysis, chemistry, or hematology measures (liver function tests, triglycerides, total cholesterol, HDL cholesterol) ([1]; 0.4 to 6 mg daily): no consistent dose-related clinically significant changes
- Ligament calcification, osteophyte formation, changes in serum bone alkaline phosphatase, serum amino terminal telopeptides, bone density ([1]; 0.4 to 6 mg daily): not associated with any clinically significant
- Patients withdrawing from either study due to adverse events ([1]; all groups of both studies incl. placebo (7/277)): 2.5%
- Incidence of arthralgia [2]: 20%
- Incidence of asthenia [2]: 6%
- Incidence of back pain [2]: 11%
- Incidence of cheilitis [2]: 70%
- Incidence of dry skin [2]: 25%
- Incidence of headache [2]: 11%
- Incidence of hypertriglyceridemia [2]: 6%
- Incidence of infection [2]: 10%
- Incidence of myalgia [2]: 15%
- Patients withdrawing due to adverse events, treatment period ([3]; 0.75 mg group (2/35)): 6%
- Patients withdrawing due to adverse events, treatment period ([3]; 1.5 mg group (0/37)): 0%
- Patients withdrawing due to adverse events, treatment period ([3]; 3 mg group (2/37)): 5%
- Patients withdrawing due to adverse events, treatment period ([3]; 6 mg group (1/36)): 3%
- Reduction of overall acne severity vs placebo ([3]; 6 mg, from week 16 until end of post-treatment phase (p ≦0.01)): significantly more than placebo
- Abnormalities in liver function test results or elevated triglycerides, total cholesterol, or HDL cholesterol ([3]; 0.75 to 6 mg once daily, 24 weeks): not generally associated
- Sebum secretion (Sebutape method) relative to placebo ([3]; 0.75 to 6 mg once daily, assessed every 4 weeks): does not substantially reduce sebum secretion
- Incidence of altered hormone levels (elevated TSH and T4, decreased T4, abnormal thyroid function test) [4]: 0%
- Incidence of hypertriglyceridemia, hypercholesterolemia, abnormal liver function tests, increased ALT, increased AST, desquamation, eye dryness, alopecia ([4]; vs placebo): essentially the same incidence with oral tazarotene as with placebo

SMILES: COc1cc(C)c(/C=C/C(C)=C/C=C/C(C)=C/C(=O)O)c(C)c1C [acitretin]
- Bioavailability in the presence of food [5]: increased in the presence of food

SMILES: CC1(C)CCSc2ccc(C#Cc3ccc(C(=O)O)cn3)cc21 [tazarotenic acid]
- RAR subtype selectivity [6]: selectivity for RAR-β and RAR-γ
- Cmax average ratio (test/reference) of tazarotenic acid ([7]; Day 0): 1.00
- Cmax average ratio (test/reference) of tazarotenic acid ([7]; Day 9): 0.829
- Activation of the RXRs [8]: does not activate

SMILES: CC1=C(/C=C/C(C)=C/C=C/C(C)=C\C(=O)O)C(C)(C)CCC1 [isotretinoin]
- Bioavailability in the presence of food [5]: increased in the presence of food
- Decrease in sebum secretion rate [9]: about 90%

SMILES: CC1(C)CC[S+]([O-])c2ccc(C#Cc3ccc(C(=O)O)cn3)cc21 (stereo not drawn) [AGN 190844]
- Activation of the RARs [6]: does not activate
- Activation of the RXRs [8]: does not activate

SMILES: C=C(c1ccc(C(=O)O)cc1)c1cc2c(cc1C)C(C)(C)CCC2(C)C [bexarotene]
- Plasma concentration of coadministered tamoxifen [10]: reduced plasma concentration of tamoxifen
- Bioavailability in the presence of food [5]: increased in the presence of food
